# Counter-ions that a name gives are not always drawn.
# Molecular target: T1, human CXCR3 (Homo sapiens, UniProt P49682)
# T1 construct: expressed in transfected cells; host or cells: CHO cells (membrane preparation)
# T1 sequence (P49682 1-368): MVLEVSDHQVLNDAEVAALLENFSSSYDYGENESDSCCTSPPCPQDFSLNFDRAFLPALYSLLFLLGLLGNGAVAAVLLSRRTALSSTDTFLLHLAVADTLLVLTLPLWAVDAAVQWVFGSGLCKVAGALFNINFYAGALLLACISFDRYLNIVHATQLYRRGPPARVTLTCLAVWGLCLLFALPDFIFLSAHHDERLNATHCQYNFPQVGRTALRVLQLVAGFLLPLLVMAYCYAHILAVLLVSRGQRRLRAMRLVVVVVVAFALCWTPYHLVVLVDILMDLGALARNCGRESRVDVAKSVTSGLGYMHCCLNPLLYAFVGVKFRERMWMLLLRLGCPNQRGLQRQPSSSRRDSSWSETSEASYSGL
# Assay: [35S]GTPγS exchange assay, CXCR3 receptor inhibition (hI-TAC-induced GTPγS-binding)
# Format: biochemical
# Settings: -log IC50 (molar) inhibiting 50% of specific I-TAC-induced GTPγS-binding; membranes of human CXCR3-transfected CHO cells
# Procedure: CXCR3 Receptor Inhibition was Examined in a [^35S]GTPγS Exchange Assay
# The exchange of guanosine 5′-[^35S]triphosphate was measured on membranes of human CXCR3-transfected CHO cells. [^35S]GTPγS exchange assays were performed in 96-well plates with 10 μg of membrane protein/well using basic flashplates (Perkin Elmer). Compounds were dissolved in DMSO and diluted with incubation buffer to yield required concentrations with 9% DMSO. Incubation buffer is composed of 20 mM HEPES, 100 mM NaCl, 3 μM GDP and 1 mM MgCl2, pH 7.4. […] Compound, membranes, hI-TAC (interferon-inducible T-cell alpha chemoattractant) and [^35S]GTPγS were added in a total volume of 200 μl. First, 20 μl of the appropriate compound dilution and 140 μl membranes from CXCR3-CHO cells were dissolved in membrane incubation buffer and pre-incubated for 30 minutes at 30° C. Then, 20 μl of hI-TAC dissolved at 30 nM in incubation buffer was added to the membranes and the mixture containing 1% of DMSO was incubated for another 30 minutes at 30° C. […] After 1 minute shaking and 30 minutes incubation at 30° C., flashplates were centrifuged for 5 minutes at 2500 rpm at room temperature. Flashplate bound radioactivity was determined by liquid scintillation counting. Basal GTPγS-binding was measured in 8 wells with membranes incubated in the same volume with 1% DMSO, without I-TAC. Maximal GTPγS-binding was measured in 8 wells with membranes incubated with 1% DMSO and 3 nM I-TAC. […] IC50 values were calculated using non-linear regression in Graphpad Prism.
row,SMILES,pIC50
1,O=C1NCCCC1(c1ccccc1)C1CCN(Cc2ccc(Br)cc2)CC1 (stereo not shown) [Compound 142],5.8
2,O=C1CCC(c2cccnc2)(C2CCN(Cc3ccc(Br)cc3)CC2)C(=O)N1 (stereo not shown) [Compound 178],6.0
3,O=C1CCC(c2ccc(C(=O)O)cc2)(C2CCN(Cc3ccc(Br)cc3)CC2)C(=O)N1 (stereo not shown) [Compound 193],5.3

# Same assay, conditions: -log IC50 (molar) inhibiting 50% of specific I-TAC-induced GTPγS-binding; membranes of human CXCR3-transfected CHO cells; read-out: pIC50 (converted)
row,SMILES,IC50 [nM]
1,"O=C1CCC(c2ccccc2)(C2CCN(Cc3ccc(Cl)c(F)c3)CC2)C(=O)N1 (single isomer, unassigned) [Compound 40]",398
2,O=C1CCC(c2ccc(F)cc2)(C2CCN(Cc3ccc(Cl)c(F)c3)CC2)CN1 (stereo not shown) [Compound 139],1580
3,O=C1CCC(c2ccccc2)(C2CCN(Cc3ccc(Cl)c(Cl)c3)CC2)CN1 (stereo not shown) [Compound 140],794
4,O=C1CCC(c2ccc(F)cc2)(C2CCN(Cc3ccc(Cl)c(Cl)c3)CC2)CN1 (stereo not shown) [Compound 141],1580
5,O=C1CCC(c2ccc(F)cc2)(C2CCN(Cc3ccc(Br)cc3)CC2)CN1 (stereo not shown) [Compound 143],631
6,CC(c1ccc(Br)cc1)N1CCC(C2(c3ccc(F)cc3)CCC(=O)NC2)CC1 (stereo not shown) [Compound 144],631
7,Cc1cc(CN2CCC(C3(c4ccc(F)cc4)CCC(=O)NC3)CC2)ccc1Br (stereo not shown) [Compound 145],794
8,O=C1CCC(c2ccccc2)(C2CCN(Cc3ccc(C(F)(F)F)cc3)CC2)CN1 (stereo not shown) [Compound 146],2510
9,O=C1CCC(c2ccc(F)cc2)(C2CCN(Cc3ccc(OC(F)F)cc3)CC2)CN1 (stereo not shown) [Compound 147],3980
10,O=C1CCC(c2ccccc2)(C2CCN(Cc3ccc(OCc4ccc(Cl)cc4)cc3)CC2)CN1 (stereo not shown) [Compound 148],6310
11,O=C1CCC(c2cccc(Cl)c2)(C2CCN(Cc3ccc4ccccc4c3)CC2)C(=O)N1 (stereo not shown) [Compound 149],5010
12,O=C1CCC(c2ccc(F)cc2)(C2CCN(Cc3ccc4ccccc4c3)CC2)C(=O)N1 (stereo not shown) [Compound 150],1000
13,O=C1CCC(c2ccccc2)(C2CCN(Cc3ccc(Cl)s3)CC2)C(=O)N1 (stereo not shown) [Compound 151],3160
14,O=C1CCC(c2cccc(Cl)c2)(C2CCN(Cc3ccc(Cl)s3)CC2)C(=O)N1 (stereo not shown) [Compound 152],794
15,O=C1CCC(c2ccc(F)cc2)(C2CCN(Cc3ccc(Cl)s3)CC2)C(=O)N1 (stereo not shown) [Compound 153],1260
16,O=C1CCC(c2ccccc2)(C2CCN(Cc3ccc(Cl)s3)CC2)C(=O)N1 (stereo not shown) [Compound 154],2510
17,O=C1CCC(c2ccccc2)(C2CCN(Cc3cc(F)c(F)cc3F)CC2)C(=O)N1 (stereo not shown) [Compound 155],2510
18,O=C1CCC(c2ccc(F)cc2)(C2CCN(Cc3cc(F)c(F)cc3F)CC2)C(=O)N1 (stereo not shown) [Compound 156],794
19,Cc1cc(C)c(CN2CCC(C3(c4ccccc4)CCC(=O)NC3=O)CC2)c(C)c1 (stereo not shown) [Compound 157],3160
20,O=C1CCC(c2ccccc2)(C2CCN(Cc3cc4cc(Br)ccc4o3)CC2)C(=O)N1 (stereo not shown) [Compound 158],1260
21,O=C1CCC(c2cccc(C(=O)O)c2)(C2CCN(Cc3cc4cc(Br)ccc4o3)CC2)C(=O)N1 (stereo not shown) [Compound 160],316
22,O=C1CCC(c2ccc(F)cc2)(C2CCN(Cc3cc4cc(Br)ccc4o3)CC2)C(=O)N1 (stereo not shown) [Compound 161],3160
23,O=C1CCC(c2ccc(F)cc2)(C2CCN(Cc3ccc4nonc4c3)CC2)C(=O)N1 (stereo not shown) [Compound 163],3980
24,CC(c1ccc(Br)cc1)N1CCC(C2(c3cccc(Cl)c3)CCC(=O)NC2=O)CC1 (stereo not shown) [Compound 164],1000
25,CC(c1ccc(Br)cc1)N1CCC(C2(c3cccc(C(=O)O)c3)CCC(=O)NC2=O)CC1 (stereo not shown) [Compound 165],794
26,O=C1CCC(c2ccncc2)(C2CCN(Cc3ccc(Cl)c(Cl)c3)CC2)C(=O)N1 (stereo not shown) [Compound 169],1000

row,SMILES,IC50 [nM]
1,CC(c1ccc(Br)cc1)N1CCC(C2(c3ccncc3)CCC(=O)NC2=O)CC1 (stereo not shown) [Compound 171],1580
2,O=C1CCC(c2ccncc2)(C2CCN(Cc3ccc(-c4ccccc4)cc3)CC2)C(=O)N1 (stereo not shown) [Compound 174],5010
3,O=C1CCC(c2cccnc2)(C2CCN(Cc3ccc(F)c(F)c3F)CC2)C(=O)N1 (stereo not shown) [Compound 175],1000
4,O=C1CCC(c2cccnc2)(C2CCN(Cc3ccc(Cl)c(F)c3)CC2)C(=O)N1 (stereo not shown) [Compound 176],2000
5,O=C1CCC(c2cccnc2)(C2CCN(Cc3ccc(Cl)c(Cl)c3)CC2)C(=O)N1 (stereo not shown) [Compound 177],1000
6,O=C1CCC(c2cccnc2)(C2CCN(Cc3ccc(Br)cc3F)CC2)C(=O)N1 (stereo not shown) [Compound 179],2000
7,O=C1CCC(c2cccnc2)(C2CCN(Cc3ccc(OC(F)(F)F)cc3)CC2)C(=O)N1 (stereo not shown) [Compound 180],2510
8,O=C1CCC(c2ccncc2)(C2CCN(Cc3cc4cc(Br)ccc4o3)CC2)C(=O)N1 (stereo not shown) [Compound 183],1260
9,O=C1CCC(c2cccnc2)(C2CCN(Cc3cc4cc(Br)ccc4o3)CC2)C(=O)N1 (stereo not shown) [Compound 184],1580
10,O=C1CCC(c2ccc([N+](=O)[O-])cc2)(C2CCN(Cc3ccccc3[N+](=O)[O-])CC2)C(=O)N1 (stereo not shown) [Compound 186],> 10000
11,O=C1CCC(c2ccccc2)(C2CCN(Cc3ccc(Cl)cc3)CC2)C(=O)N1Cc1ccc(Cl)cc1 (stereo not shown) [Compound 189],2000
12,O=C1CCC(c2ccc(C(=O)O)cc2)(C2CCN(Cc3ccc(F)c(Cl)c3)CC2)C(=O)N1 (stereo not shown) [Compound 190],6310
13,O=C1CCC(c2ccc(C(=O)O)cc2)(C2CCN(Cc3ccc(Cl)cc3)CC2)C(=O)N1 (stereo not shown) [Compound 191],5010
14,O=C1CCC(c2ccc(F)c(F)c2)(C2CCN(Cc3ccc(Cl)c(F)c3)CC2)C(=O)N1 (stereo not shown) [Compound 192],2510
15,Cc1cc(CN2CCC(C3(c4ccc(F)cc4F)CCC(=O)NC3=O)CC2)ccc1Br (stereo not shown) [Compound 196],316
16,O=C1CCC(c2ccc(F)cc2F)(C2CCN(Cc3ccc(Br)c(F)c3)CC2)C(=O)N1 (stereo not shown) [Compound 197],398
17,O=C1CCC(c2ccc(F)cc2F)(C2CCN(Cc3ccc(Br)cc3F)CC2)C(=O)N1 (stereo not shown) [Compound 198],251
18,O=C1CCC(c2ccc(F)cc2F)(C2CCN(Cc3ccc(Cl)cc3)CC2)C(=O)N1 (stereo not shown) [Compound 199],251
19,O=C1CCC(c2ccc(F)cc2F)(C2CCN(Cc3ccc(Cl)cc3Cl)CC2)C(=O)N1 (stereo not shown) [Compound 200],631
20,O=C1CCC(c2ccc(F)cc2F)(C2CCN(Cc3ccc(Cl)c(Cl)c3)CC2)C(=O)N1 (stereo not shown) [Compound 201],398
21,O=C1CCC(c2ccc(F)cc2F)(C2CCN(Cc3ccc(OC(F)F)cc3)CC2)C(=O)N1 (stereo not shown) [Compound 205],631
22,O=C1CCC(c2ccc(F)cc2F)(C2CCN(Cc3cc4cc(Br)ccc4o3)CC2)C(=O)N1 (stereo not shown) [Compound 206],1260
23,O=C1CCC(c2ccc(F)cc2F)(C2CCN(Cc3ccc4nonc4c3)CC2)C(=O)N1 (stereo not shown) [Compound 207],398
24,CC(c1ccc(Br)cc1)N1CCC(C2(c3ccc(F)cc3F)CCC(=O)NC2=O)CC1 (stereo not shown) [Compound 208],158
25,CC1CC(=O)NC(=O)C1(c1ccccc1)C1CCN(Cc2ccc(Br)cc2)CC1 (stereo not shown) [Compound 209],501
26,CC(=O)N1CC(c2ccccc2)(C2CCN(Cc3ccc(Br)cc3)CC2)CCC1=O (stereo not shown) [Compound 210],1260

# Test system: not given
# Assay: not given
# Settings: not given
row,SMILES,melting point [°C]
1,Cl.Nc1cc(CN2CCC(C3(c4ccccc4)CCC(=O)NC3=O)CC2)ccc1Cl (stereo not shown),287.8
2,O=C1CCC(c2ccccc2)(C2CCN(Cc3ccc(Cl)c([N+](=O)[O-])c3)CC2)C(=O)N1 (stereo not shown) (as salt: HCl) [Compound 12],244.4 to 248.3
3,"O=C1CCC(c2ccccc2)(C2CCN(Cc3ccc(Cl)c(F)c3)CC2)C(=O)N1 (single isomer, unassigned) [Compound 40]",192 to 194.3

# Reference: patent US20090030039A1, “Piperidine Derivatives as Cxcr3 Receptor Antagonists” (priority 2006, published 2009)
